Holding throughout (assay type): functional
For test [1], the system named is Vero. Put plainly: Cytotoxicity against Vero cells. As to conditions: Chlorocebus sabaeus.
Test [2] has as its system PBMC. Put plainly: Cytotoxicity against human PBM cells.
The test system of test [3] is CCRF-CEM. Put plainly: Cytotoxicity against human CEM cells.
Test [4] has as its system PBMC. Put plainly: Selectivity index of antiviral vs cytoxic activity in PBM cells (CC50/EC50).

SMILES strings stand for the structures.

`C=CCc1ccc(O)c(-c2cc(CC=C)ccc2O)c1` [MAGNOLOL]: the CC50 came out at 50.6 µM in test [1], 38.6 µM in test [2] and 99.5 µM in test [3].
As for `C=CCc1ccc(O)c(-c2ccc(O)c(CC=C)c2)c1` [HONOKIOL], the CC50 in test [1] is 22.5 µM; in test [2], 16.1 µM; in test [3], 10.9 µM. For the same molecule, the “Ratio CC50/EC50” value in test [4] came to 5.

As usually defined, the CC50 is the concentration giving 50% cytotoxicity. Low values mean greater toxicity to the cells, high ones lower toxicity to the cells.

Source of the values: ChEMBL document CHEMBL1148526, “Facile purification of honokiol and its antiviral and cytotoxic properties” (J Med Chem, 2006).
